Laboratory results: patent publication US12448383B2, “Compounds and methods for treatment of viral infections” (priority 2022, dated 2025)
Read-outs that look alike come from different tables or passages of the source.

Experiments:
[1] = tested on: Caco-2 cells (clone C2BBe1); assay: CACO-2 permeability; assay type: in vitro ADME; parameters: unit not given here; details: for DM Caco2 A to B: apical to basolateral, donor pH 6.5, receiver pH 7.4; for DM Caco2 B to A: basolateral to apical
Method in brief: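 A-to-B and B-to-A flux measured by LC-MS/MS from receiver samples taken at 1 and 2 h, with donor sampled at 0 and 2 h and recovery checked. Buffers: pH 6.5 HBSS with 200 μM BNPP on the donor side, pH 7.4 with BSA on the receiver side. Monolayers were 21-day cultures, TEER-verified, in duplicate wells.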

[2] = tested on: Respiratory syncytial virus recombinant with luciferase (RSV-Luc5) in HEp-2 cells; assay: microbe, parasite or virus in culture; assay type: cell-based; details: human respiratory syncytial virus
GI S9 stability = assay type: in vitro ADME; details: human, s9, pH 7.4
Description: Example G: GI S9 Stability
Duplicate aliquots of test compound or positive control substrate (GS-7340) were added to S9 stock diluted with 100 mM phosphate buffered saline, pH 7.4, to obtain a protein concentration of 1.0 mg/mL. The S9 metabolic reactions were initiated by the addition of the substrates to the S9 reaction mixture to a final concentration of 2 μM. At 0, 10, 20, 30, 60 and 120 min, […] aliquots of the reaction mixture were transferred to plates containing […] of IS/Q solution. After quenching, the plates were centrifuged at 3000 g for 30 minutes, and 150 μL aliquots of each supernatant were diluted with 150 μL water. Aliquots ([…]) of the diluted supernatant were analyzed on a Thermo Q-Exactive mass spectrometer as described below. GI S9 Stability—No phenylmethylsulfonyl fluoride (PMSF): Similar to the procedure described above, test compounds were incubated at 2 μM with 1 mg/mL PMSF-free Intestinal S9 fractions. Samples are removed at 6 time points over the course of a 120 min experiment and the parent compound disappreance and reference compound A formation is determined by mass spectrometry.
Example K: Liquid Chromatography/Mass Spectroscopy Methods for S9 and Plasma Stability
Quantification of test compounds, Reference Compound A (S9 stability assay nucleoside metabolite), and controls was performed by analyte/internal standard peak area ratio (PAR) values measured on a Thermo Q-Exactive mass spectrometer coupled to a Dionex UltiMate 3000 HPLC with a Leap Technologies HTC PAL autosampler. The column used for analysis of test compounds and Reference Compound A was a Waters Acquity BEH C18 ([…] particle size, 2.1′50 mm). The column used for control (GS-7340) was a Thermo Hypersil GOLD ([…] particle size, 2.1′50 mm). Mobile phase A consisted of 0.1% (v/v) formic acid in water. Mobile phase B consisted of 0.1% (v/v) formic acid in acetonitrile. Elution of analytes was achieved by a series of linear gradients of acetonitrile in water containing 0.1°(v/v) formic acid. The mass spectrometer was calibrated on a weekly basis and mass tolerance of 5 ppm was used.

[3] = HEp-2, 72 h, read-out: RSV Hep2 EC50

| SMILES | logD (physchem) | DM Caco2 A to B [1] | DM Caco2 B to A [1] | EC50 ([2]; HEp-2, read-out: EC50 RSVFluc-Hep2 384 V2) | EC50 [2, 3] | half-life at 2 µM (GI S9 stability) |
| --- | --- | --- | --- | --- | --- | --- |
| CC(C)OC(=O)Nc1ncnn2c([C@]3(C#N)O[C@H](COC(=O)OC(C)C)[C@@H](O)[C@H]3O)ccc12 [Compound 137, isopropyl (7-((2R,3R,4S,5R)-2-cyano-3,4-dihydroxy-5-(((isopropoxycarbonyl)oxy)methyl)tetrahydrofuran-2-yl)pyrrolo[2, i-f][1,2,4]triazin-4-yl)carbamate] | 2 | 0.98 | 11.37 | > 50000 nM | – | – |
| COC(=O)OC[C@H]1O[C@@](C#N)(c2ccc3c(N)ncnn23)[C@H](OC(C)=O)[C@@H]1OC(C)=O [Compound 128, (2R,3R,4R,5R)-2-(4-aminopyrrolo[2,1-f][1,2,4]triazin-7-yl)-2-cyano-5-(((methoxycarbonyl)oxy)methyl)tetrahydrofuran-3,4-diyl diacetate] | – | 3.35 | 5.69 | – | – | – |
| CC1(C)[C@@H]2CC[C@@]1(C)[C@@H](OC(=O)OC[C@H]1O[C@@](C#N)(c3ccc4c(N)ncnn34)[C@H](O)[C@@H]1O)C2 [Compound 51, ((2R,3S,4R,5R)-5-(4-aminopyrrolo[2,1-f][1,2,4]triazin-7-yl)-5-cyano-3,4-dihydroxytetrahydrofuran-2-yl)methyl ((1R,2S,4R)-1,7,7-trimethylbicyclo[2.2.1]heptan-2-yl) carbonate] | – | 4.35 | 17.19 | – | 2140 nM | – |
| CC(C)OC(=O)OC[C@H]1O[C@@](C#N)(c2ccc3c(N)ncnn23)[C@H](OC(=O)C(C)C)[C@@H]1OC(=O)C(C)C [Compound 59, (2R,3R,4R,5R)-2-(4-aminopyrrolo[2,1-f][1,2,4]triazin-7-yl)-2-cyano-5-(((isopropoxycarbonyl)oxy)methyl)tetrahydrofuran-3,4-diyl bis(2-methylpropanoate)] | – | 11.61 | 17.7 | – | 786 nM | 0.0239 h |
| CC(C)(C)OC(=O)OC[C@H]1O[C@@](C#N)(c2ccc3c(N)ncnn23)[C@H](O)[C@@H]1O [Compound 46, ((2R,3S,4R,5R)-5-(4-aminopyrrolo[2,1-f][1,2,4]triazin-7-yl)-5-cyano-3,4-dihydroxytetrahydrofuran-2-yl)methyl tert-butyl carbonate] | – | 0.76 | 10.66 | – | 2320 nM | 7.32 h |
| CC12CCC(C1)C(C)(C)C2OC(=O)OC[C@H]1O[C@@](C#N)(c2ccc3c(N)ncnn23)[C@H](O)[C@@H]1O (mixture of isomers) [Compound 48, ((2R,3S,4R,5R)-5-(4-aminopyrrolo[2,1-f][1,2,4]triazin-7-yl)-5-cyano-3,4-dihydroxytetrahydrofuran-2-yl)methyl (1,3,3-trimethylbicyclo[2.2.1]heptan-2-yl) carbonate] | – | 6.19 | 12.52 | – | 2350 nM | – |
| CC(=O)O[C@H]1[C@@H](OC(C)=O)[C@](C#N)(c2ccc3c(N)ncnn23)O[C@@H]1COC(=O)OC(C)C [Compound 65, (2R,3R,4R,5R)-2-(4-aminopyrrolo[2,1-f][1,2,4]triazin-7-yl)-2-cyano-5-(((isopropoxycarbonyl)oxy)methyl)tetrahydrofuran-3,4-diyl diacetate] | – | 3.07 | 7.23 | – | 1080 nM | – |
| CC(C)OC(=O)OC[C@H]1O[C@@](C#N)(c2ccc3c(N)ncnn23)[C@H](O)[C@@H]1O [Compound 4, [(2R,3S,4R,5R)-5-(4-aminopyrrolo[2,1-f][1,2,4]triazin-7-yl)-5-cyano-3,4-dihydroay-tetrahydrofuran-2-yl]methyl isopropyl carbonate] | – | 0.545 | 5.29 | – | 606 nM | 4.21 h |
| CC(C)C(=O)O[C@H]1[C@@H](OC(=O)C(C)C)[C@](C#N)(c2ccc3c(N)ncnn23)O[C@@H]1COC(=O)OC(C)(C)C [Compound 58, (2R,3R,4R,5R)-2-(4-aminopyrrolo[2,1-f][1,2,4]triazin-7-yl)-5-(((tert-butoxycarbonyl)oxy)methyl)-2-cyanotetrahydrofuran-3,4-diyl bis(2-methylpropanoate)] | – | 5.67 | 6.86 | – | 1360 nM | – |
| CC1(OC(=O)OC[C@H]2O[C@@](C#N)(c3ccc4c(N)ncnn34)[C@H](O)[C@@H]2O)CCCCC1 [Compound 47, ((2R,3S,4R,5R)-5-(4-aminopyrrolo[2,1-f][1,2,4]triazin-7-yl)-5-cyano-3,4-dihydroxytetrahydrofuran-2-yl)methyl (1-methylcyclohexyl) carbonate] | – | 1.68 | 11.38 | – | 2330 nM | – |
| CCOC(=O)OC[C@H]1O[C@@](C#N)(c2ccc3c(N)ncnn23)[C@H](O)[C@@H]1O [Compound 6, ((2R,3S,4R,5R)-5-(4-aminopyrrolo[2,1-f][1,2,4]triazin-7-yl)-5-cyano-3,4-dihydroxytetrahydrofuran-2-yl)methyl ethyl carbonate] | – | 0.21 | 2.77 | – | 1120 nM | 11.9 h |
| CC(C)(OC(=O)OC[C@H]1O[C@@](C#N)(c2ccc3c(N)ncnn23)[C@H](O)[C@@H]1O)c1ccncc1 [Compound 49, ((2R,3S,4R,5R)-5-(4-aminopyrrolo[2,1-f][1,2,4]triazin-7-yl)-5-cyano-3,4-dihydroxytetrahydrofuran-2-yl)methyl (2-(pyridin-4-yl)propan-2-yl) carbonate] | – | 0.13 | 3.48 | – | > 50000 nM | – |
| CCOC(=O)OC[C@H]1O[C@@](C#N)(c2ccc3c(N)ncnn23)[C@H](OC(C)=O)[C@@H]1OC(C)=O [Compound 129, (2R,3R,4R,5R)-2-(4-aminopyrrolo[2,1-f][1,2,4]triazin-7-yl)-2-cyano-5-(((ethoxycarbonyl)oxy)methyl)tetrahydrofuran-3,4-diyl diacetate] | – | 3.505 | 6.635 | – | – | – |
